These results are taken from patent publication US10945989B2, “Perinatal treatment with a flavonoid agonist of the TrkB receptor for BDNF rescues neurogenesis and behavior in the Ts65Dn mouse model of DS” (ALMA MATER STUDIORUM—Universita' di Bologna, priority 2017, dated 2021).

Data set [1] deals with granule cells of the dentate gyrus. As to the kind of experiment: Stereology of the DG: total number of granule cells. Particulars: 5.0 mg/kg P3-P15. Type of data set: in vivo, mouse. The procedure:
Euploid and Ts65Dn mice received a daily subcutaneous injection (at 9-10 am) of 7,8-DHF (5.0 mg/kg in vehicle: PBS with 1% DMSO) or vehicle from postnatal day 3 (P3) to postnatal day 15. This timing was chosen because it corresponds to that previously used to test the effects of fluoxetine and other pharmacotherapies in the neonate Ts65Dn mouse (Bianchi et al., 2010b; Giacomini et al., 2015; Stagni et al., 2016). Mice that received 7,8-DHF will be called “treated mice” (treated euploid mice: n=25; treated Ts65Dn mice: n=15). Mice that received the vehicle will be called “untreated mice” (untreated euploid mice: n=35; untreated Ts65Dn mice: n=21). […]
Unbiased stereology was performed on Hoechst-stained sections from P15 mice. […] Granule cell nuclei were counted with a ×64 oil objective (1.4 NA). Granule cell nuclei intersecting the uppermost focal plane and intersecting the exclusion lines of the count frame were not counted. […]
where Q is the number of particles counted in the disectors, dis is the number of disectors and Vdis is the volume of the disector. For calculation of Vdis the disector height was corrected for section shrinkage in the z-plane (Dorph Petersen et al., 2001) according to the formula: h=counting thickness×(original thickness/measured thickness). The section thickness was measured during neuron counting at different random locations. […]

Data set [2] can be described thus: Mortality before weaning, neonatal treatment. From the text: Treatment with either 7,8-DHFor vehicle began on postnatal day 3(P3). All mice that survived in the P0 to P3 period entered this study, with no specific selection criteria. Total of 185 mice entered the study (96 males and 89 females). The number of vehicle-treated and 7,8-DHF treated mice was 96 and 89, respectively.
The Ts65Dn strain is characterized by a high mortality rate during gestation (Roper et al., 2006). […] In the current study, treatment with either 7,8-DHF or vehicle began on postnatal day 3 (P3). All mice that survived in the P0 to P3 period entered this study, with no specific selection criteria.

The conditions of data set [3]: dose of 5.0 mg/kg, Liu et al., 2010; cited from earlier work.
Data set [4] deals with Ts65Dn and euploid mice. As to the kind of experiment: Morris Water Maze, learning phase. Type of data set: in vivo, mouse. As for the experimental part:
Euploid and Ts65Dn mice received a daily subcutaneous injection (at 9-10 am) of 7,8-DHF (5.0 mg/kg in vehicle) or vehicle from postnatal day 3 (P3) to postnatal day P45-P50. […] These mice will be called here P45 mice. Mice were behaviorally tested in the 6 days that preceded the day of sacrifice (FIG. 2B).
Mice were trained in the MWM task to locate a hidden escape platform in a circular pool, using a previously used protocol (Stagni et al., 2016), that was altogether based on a published protocol (Vorhees and Williams, 2006). The apparatus consisted of a large circular water tank (1.00 m diameter, 50 cm height) with a transparent round escape platform (10 cm^2). The pool was virtually divided into four equal quadrants identified as northeast, northwest, southeast, and southwest. The tank was filled with tap water at a temperature of 22±1.0° C. Mice are more prone to undergo hypothermia than rats and in the MWM hypothermia may cause a reduction in swimming speed (livonen et al., 2003). […] This is consistent with evidence that a temperature of 22° C. is “high enough” to reduce stress and potential hypothermia and “low enough” to maintain the animals' motivation to escape the pool (Costa et al., 2010). The tank was filled with water up to 0.5 cm above the top of the platform and the water was made opaque with milk. The platform was placed in the tank in a fixed position (in the middle of the south-west quadrant). The pool was placed in a large room with various intra (squares, triangles, circles and stars) and extra-maze visual cues. Each mouse was tested in one session of 4 trial on the first day and in two sessions of 4 trials in the following 4 days with an inter-session interval of 45 min. A video camera was placed above the center of the pool and connected to a videotracking system (Ethovision 3.1; Noldus Information Technology B.V., Wageningen, Netherlands). Mice were released facing the wall of the pool from one of the following starting points: North, East, South, or West and allowed to search for up to 60 s for the platform. […] During the inter-trail time (10 s) mice were placed in an empty cage. For the learning phase, we evaluated the latency to find the hidden platform, time in periphery, percentage of time in periphery, path length, proximity to the platform, and swimming speed. Retention was assessed with one trial (probe trial), on the sixth day, 24 h after the last acquisition trial, using the same starting point for all mice. Mice were allowed to search for up to 60 s for the platform. For the probe trial, the latency of the first entrance in the former platform zone, the frequency of entrances in the former quadrant, the proximity to the former platform position (Gallagher's test), the percentage of time spent at the periphery (thigmotaxis), the swimming speed and the percentage of time spent in each quadrant were employed as measures of retention of acquired spatial preference. All experimental sessions were carried out between 9.00 am and […]. The following number of mice were tested. Untreated euploid mice: n=19; untreated Ts65Dn mice: n=14; 7,8-DHF-treated euploid mice: n=17; 7,8-DHF-treated Ts65Dn mice: n=16. Three untreated euploid mice (yielding n=16), one 7,8-DHF-treated euploid mouse (yielding n=16) and one 7,8-DHF-treated Ts65Dn mouse (yielding n=15) were excluded from MWM analysis due to thigmotaxis for a whole recording session.

Structures are written as SMILES.

Regarding `O=c1cc(-c2ccccc2)oc2c(O)c(O)ccc12` [7,8-DHF, 7,8-dihydroxyflavone], the entries for the “total number of granule cells” value in data set [1] (P15 Ts65Dn mice) and in data set [1] (P15 euploid mice) were “became similar to that of untreated euploid mice” and “no effect on total number of granule cells”, respectively. The “adverse effects on the health of mice” value in data set [2] (mouse, in vivo) was “no adverse effects on the health of mice”. Also, the “mice that died before weaning” value in data set [2] (treatment from P3, deaths in the P6-P22 period, vehicle 7.3%) was determined as 5.6%. For the same compound, the toxic effects result in data set [3] is listed as “no toxic effects”. Further, the “time spent at the periphery (thigmotaxis)” value in data set [4] (Ts65Dn mice) was “spent a similar time as euploid mice”; in data set [4] (euploid mice), “reduction in thigmotaxis”. The “escape latency (learning phase)” value in data set [4] (Ts65Dn mice, 5.0 mg/kg P3-P45-50, save for day 3) is “not statistically different from that of untreated euploid mice”; in data set [4] (euploid mice, vs untreated, significant on day 2 only), “latency was reduced”. For the same compound, the path length entry in data set [4] (Ts65Dn mice, day 5) is given as “shorter in comparison with their untreated counterparts”. Besides, the “proximity (distance from the platform)” value in data set [4] (Ts65Dn mice, day 5) is on record as “significantly reduced in comparison with their untreated counterparts”. The “percentage of time spent at the periphery” value in data set [4] (Ts65Dn mice, significant vs untreated counterparts on day 5) was “underwent a reduction”.
